Reference: PubChem BioAssay AID1963852 (Molecular Pharmacology Branch, DTP, NCI, 2024)

Tested on: 282377-053-R-J1-PDC complex spheroid viability
Assay: Anticancer human tumor 282377-053-R-J1-PDC patient-derived colon adenocarcinoma cell line growth inhibition [POLQ]
Details: for IC50: curve of first compound; for viability, T/C: stronger effect = lower value
Procedure, shortened: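 Three-cell-type spheroids modelling solid tumor plus stroma served as the readout system; POL inhibitors were tested individually and in combination, concentration ranges set by clinical Cmax where known.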

[1] = second compound 0.0316 µM, first compound 0.0316 µM
[2] = second compound 0.0316 µM, first compound 0.1 µM
[3] = second compound 0.0316 µM, first compound 0.316 µM
[4] = second compound 0.0316 µM, first compound 1 µM
[5] = second compound 0.0316 µM, first compound 3.16 µM
[6] = second compound 0.0316 µM, first compound 10 µM
[7] = second compound 0.1 µM, first compound 0.0316 µM
[8] = second compound 0.1 µM, first compound 0.1 µM
[9] = second compound 0.1 µM, first compound 0.316 µM
[10] = second compound 0.1 µM, first compound 1 µM
[11] = second compound 0.1 µM, first compound 3.16 µM
[12] = second compound 0.1 µM, first compound 10 µM
[13] = second compound 0.316 µM, first compound 0.0316 µM
[14] = second compound 0.316 µM, first compound 0.1 µM
[15] = second compound 0.316 µM, first compound 0.316 µM
[16] = second compound 0.316 µM, first compound 1 µM
[17] = second compound 0.316 µM, first compound 3.16 µM
[18] = second compound 0.316 µM, first compound 10 µM
[19] = second compound 1 µM, first compound 0.0316 µM
[20] = second compound 1 µM, first compound 0.1 µM
[21] = second compound 1 µM, first compound 0.316 µM
[22] = second compound 1 µM, first compound 1 µM
[23] = second compound 1 µM, first compound 3.16 µM
[24] = second compound 1 µM, first compound 10 µM
[25] = second compound 3.16 µM, first compound 0.0316 µM
[26] = second compound 3.16 µM, first compound 0.1 µM
[27] = second compound 3.16 µM, first compound 0.316 µM
[28] = second compound 3.16 µM, first compound 1 µM
[29] = second compound 3.16 µM, first compound 3.16 µM
[30] = second compound 3.16 µM, first compound 10 µM
[31] = second compound 10 µM, first compound 0.0316 µM
[32] = second compound 10 µM, first compound 0.1 µM
[33] = second compound 10 µM, first compound 0.316 µM
[34] = second compound 10 µM, first compound 1 µM
[35] = second compound 10 µM, first compound 3.16 µM
[36] = second compound 10 µM, first compound 10 µM
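Further: spheroids exposed to compounds for seven days.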
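Wherever viability, T/C is given: 100% = DMSO vehicle control viability.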

COc1cc(C2c3cc4c(cc3C(OC3OC5COC(C)OC5C(O)C3O)C3COC(=O)C23)OCO4)cc(OC)c1O (stereo unspecified) + COC1C(OC(N)=O)C(O)C(Oc2ccc3c(O)c(NC(=O)c4ccc(O)c(CC=C(C)C)c4)c(=O)oc3c2C)OC1(C)C
IC50 (second compound 0.0316 µM): > 10000 nM
IC50 (second compound 0.1 µM): > 10000 nM
IC50 (second compound 0.316 µM): 9290 nM
IC50 (second compound 1 µM): 8390 nM
IC50 (second compound 3.16 µM): > 10000 nM
IC50 (second compound 10 µM): > 10000 nM
viability, T/C [1]: 95.7%
viability, T/C [2]: 111%
viability, T/C [3]: 97.1%
viability, T/C [4]: 80%
viability, T/C [5]: 78.3%
viability, T/C [6]: 49.5%
viability, T/C [7]: 75.8%
viability, T/C [8]: 92.8%
viability, T/C [9]: 102%
viability, T/C [10]: 90.7%
viability, T/C [11]: 67.9%
viability, T/C [12]: 53.5%
viability, T/C [13]: 101%
viability, T/C [14]: 80.1%
viability, T/C [15]: 85.3%
viability, T/C [16]: 77%
viability, T/C [17]: 73.8%
viability, T/C [18]: 46%
viability, T/C [19]: 89%
viability, T/C [20]: 86.8%
viability, T/C [21]: 86%
viability, T/C [22]: 81.1%
viability, T/C [23]: 77.3%
viability, T/C [24]: 45%
viability, T/C [25]: 76.5%
viability, T/C [26]: 96.1%
viability, T/C [27]: 97.2%
viability, T/C [28]: 89.8%
viability, T/C [29]: 70.1%
viability, T/C [30]: 51.7%
viability, T/C [31]: 87.4%
viability, T/C [32]: 83.2%
viability, T/C [33]: 118%
viability, T/C [34]: 68.5%
viability, T/C [35]: 70.3%
viability, T/C [36]: 53%

CC1COCCN1c1cc(C2(O)CC3CCC(C2)O3)c2cnn(-c3ccn[nH]3)c2n1 (stereo unspecified) + Nc1ccc(C#CCN(C(=O)Cc2ncc(C(F)(F)F)cc2C(F)(F)F)c2ccc(F)cc2)nn1
IC50 (second compound 0.0316 µM): 1980 nM
IC50 (second compound 0.1 µM): 588 nM
IC50 (second compound 0.316 µM): 1290 nM
IC50 (second compound 1 µM): 730 nM
IC50 (second compound 3.16 µM): 1180 nM
IC50 (second compound 10 µM): 1080 nM
viability, T/C [1]: 83.8%
viability, T/C [2]: 75.4%
viability, T/C [3]: 67.5%
viability, T/C [4]: 53.3%
viability, T/C [5]: 47.8%
viability, T/C [6]: 40.5%
viability, T/C [7]: 89.3%
viability, T/C [8]: 89.3%
viability, T/C [9]: 57.3%
viability, T/C [10]: 48.7%
viability, T/C [11]: 43.3%
viability, T/C [12]: 36.4%
viability, T/C [13]: 107%
viability, T/C [14]: 84.6%
viability, T/C [15]: 63.9%
viability, T/C [16]: 50.6%
viability, T/C [17]: 46.5%
viability, T/C [18]: 36.3%
viability, T/C [19]: 97.6%
viability, T/C [20]: 83.9%
viability, T/C [21]: 71%
viability, T/C [22]: 38.3%
viability, T/C [23]: 44.4%
viability, T/C [24]: 43.6%
viability, T/C [25]: 92.3%
viability, T/C [26]: 75.7%
viability, T/C [27]: 65.6%
viability, T/C [28]: 47.6%
viability, T/C [29]: 45.9%
viability, T/C [30]: 40.8%
viability, T/C [31]: 97.3%
viability, T/C [32]: 77.2%
viability, T/C [33]: 62.8%
viability, T/C [34]: 49.3%
viability, T/C [35]: 44%
viability, T/C [36]: 40.1%

COc1cccc2c1C(=O)c1c(O)c3c(c(O)c1C2=O)CC(O)(C(=O)CO)CC3OC1CC(N)C(O)C(C)O1 (stereo unspecified) + Nc1ccc(C#CCN(C(=O)Cc2ncc(C(F)(F)F)cc2C(F)(F)F)c2ccc(F)cc2)nn1
IC50 (second compound 0.0316 µM): 1960 nM
IC50 (second compound 0.1 µM): 2100 nM
IC50 (second compound 0.316 µM): 2020 nM
IC50 (second compound 1 µM): 1910 nM
IC50 (second compound 3.16 µM): 1830 nM
IC50 (second compound 10 µM): 1910 nM
viability, T/C [1]: 99.2%
viability, T/C [2]: 98.9%
viability, T/C [3]: 123%
viability, T/C [4]: 94.6%
viability, T/C [5]: 17.8%
viability, T/C [6]: 3%
viability, T/C [7]: 107%
viability, T/C [8]: 108%
viability, T/C [9]: 110%
viability, T/C [10]: 110%
viability, T/C [11]: 17.6%
viability, T/C [12]: 2.63%
viability, T/C [13]: 92.8%
viability, T/C [14]: 108%
viability, T/C [15]: 130%
viability, T/C [16]: 103%
viability, T/C [17]: 15.8%
viability, T/C [18]: 3.07%
viability, T/C [19]: 94.2%
viability, T/C [20]: 120%
viability, T/C [21]: 128%
viability, T/C [22]: 100%
viability, T/C [23]: 10.8%
viability, T/C [24]: 4.26%
viability, T/C [25]: 104%
viability, T/C [26]: 108%
viability, T/C [27]: 123%
viability, T/C [28]: 96%
viability, T/C [29]: 8.6%
viability, T/C [30]: 3.58%
viability, T/C [31]: 119%
viability, T/C [32]: 142%
viability, T/C [33]: 127%
viability, T/C [34]: 105%
viability, T/C [35]: 6.84%
viability, T/C [36]: 3.41%
